The source of these data is article PMC6770581, “New Thalidomide-Resembling Dicarboximides Target ABC50 Protein and Show Antileukemic and Immunomodulatory Activities” (Biomolecules, 2019).

The structures appear in SMILES notation.

Broadly, the IC50 is the concentration at which inhibition is half-maximal.

The test system of assay [1] is MOLT-4 cells. As to the kind of experiment: Annexin V/PI flow cytometry of apoptosis, MOLT-4. The assay is classed as cell-based, human. The conditions noted are these: MOLT-4, 3 h, 5× IC50 (3 45 µM, 6 20 µM, 5 100 µM). As to the method: The phosphatidylserine on the extracellular side of cell membranes was quantified using an FITC Annexin V Apoptosis Detection Kit I (BD Pharmingen, San Diego, CA, USA) according to the manufacturer’s instruction. 10^6 cells were seeded on a 6-well plate (Nunc). […] The control cells were exposed to 1% DMSO or 1μM staurosporine. After treatment the cells were centrifuged at 700 rpm (120× g) for 5 min, washed twice with cold PBS and then resuspended in 1x binding buffer to a density of 10^6 cells/ml. 100 µL of the resuspended cells was stained in the dark with 5 μl of Annexin V-fluoroscein isothiocyanate (FITC) solution and 10 µL propidium iodide (PI) solution for 15 min at room temperature. The samples were then diluted with 400 μL of a binding buffer and within 1 h analyzed with a flow cytometer (BD FACSCalibur^TM, BD Biosciences, San Jose, CA, USA). After treatment, four populations of cells were assessed: (1) viable (neither apoptotic nor necrotic, Annexin V-FITC and PI negative), (2) apoptotic (Annexin V-FITC positive and PI negative), (3) late apoptotic (Annexin V-FITC and PI positive), and (4) necrotic (Annexin V-FITC negative and PI positive).
(In flow cytometry, cells or beads pass a laser one at a time.)

Assay [2] deals with IKZF1 and IKZF3. Kind of assay: IKZF1 and IKZF3 level by immunoblotting in MOLT-4 cells. It is filed as cell-based, human. As to conditions: MOLT-4, 48 h, 3 (5 µM), 5 (10 µM), 6 (2 µM). Here is the method: K562 or MOLT4 cells were seeded on 6-well plate (2 × 10^6 cells/well) in a RPMI 1640 medium containing 10% FBS. MOLT4 cells were exposed to 1% DMSO (vehicle control), test compounds 6 (2 µM), 3 (5 µM), 5 (10 µM). Similarly, K562 cells were exposed to 1% DMSO, test compounds 6 (1 µM), 3 (1 µM), 5 (1 µM) for 48 h. Cells treated with 100 µM thalidomide or 10 µM lenalidomide served as positive controls. After incubation, cells were centrifuged (600 rpm, 6 min, 24 °C), washed once with PBS and lysed in 20 mM Tris (pH 7.2) containing 1% Triton X-100 supplemented with Complete® protease inhibitors cocktail (Roche). The levels of IKZF1 and IKZF3 were assessed by immunoblotting (IB).
Cells were lysed in TBS buffer containing 1% Triton X-100 and Complete® protease inhibitor cocktail (Roche) for 15 min on ice with occasional vortexing. Insoluble material was centrifuged (12,000 rpm, 15 min, 4 °C) and supernatants were collected. Total protein concentration was measured with DC Protein Assay (Bio-Rad, Hercules, CA, USA). Cell lysates containing 30 µg of total protein were mixed with Laemli buffer supplemented with SDS and β-mercaptoethanol, denatured (10 min, 95 °C) and subjected to sodium dodecyl sulfate polyacrylamide gel electrophoresis (SDS-PAGE) electrophoresis (4% stacking and 10% resolving gels). Resolved proteins were electrotransferred (semi-dry, 90 min, 1.5 mA/cm^2) to a 0.45 µm nitrocellulose membrane (Thermo Scientific, Waltham, MA, USA). Membranes were blocked for 2 hours in TBST buffer (20 mM Tris-HCl pH 7.5, 0.9% NaCl, 0.1% Tween 20) containing 5% BSA (BioShop, Burlington, ON, Canada) and probed with primary antibodies (overnight at 4 °C) diluted in TBST buffer with 0.5% BSA. Tubulin served as a loading control for IB experiments. Anti IKZF3 (rabbit monoclonal, dilution 1:500), anti IKZF1 (rabbit polyclonal, dilution 1:500) were from Abcam. Anti IRF4 (rabbit polyclonal, dilution 1:500) were from Cell Signaling Technology. […] Protein bands intensities were analysed using Image Quant (version 5.0, GE Healthcare Life Sciences, Pittsburgh, PA, USA).

Assay [3] concerns HUVEC (human umbilical vein endothelial cells). As to conditions: 48 h, MTT, mean ± SD; cited from earlier work.
Assay [4] relates to K562 cells. The conditions noted are these: 48 h, MTT, mean ± SD; cited from earlier work.
Assay [5] has as its system caspase 3 and 7. Kind of assay: Caspase-3/7 activity (Apo-ONE fluorescent assay) in MOLT-4 cells. It is filed as cell-based, human. As to conditions: 5× IC50, 18 h, normalized to 1% DMSO. As to the method:
Louis, MO). The induction of cell apoptosis was analyzed by Apo-ONE® Homogeneous Caspase-3/7 Assay (Promega, Madison, WI, USA). […] The fluorescence in each well was measured in triplicate (excitation at 485 nm, emission measured at 520 nm) using a microplate reader FLUOStar Omega (BMG-Labtech, Offenburg, Germany). For normalization of the data, the caspase activity in the control cells (exposed to 1% DMSO) was taken as 1.0. […] Luminescence was measured (in triplicate) using a microplate reader FLUOStar Omega. For normalization of the data, the caspase activity in the control cells (exposed to 1% DMSO) was taken as 1.0.

As for `CCC12C(=O)C(CC)(C(c3ccccc3)=C1c1ccccc1)C1C(=O)N(CCN3CCCCC3)C(=O)C12` (stereo not drawn) [Compound 3], the apoptotic cells entry in assay [1] is “about 76%”. In assay [2], the “level of IKZF1 and IKZF3 (immunoblotting)” value (“level of IKZF1 and IKZF3” below) is recorded as “modest reduction”. The results for the half-maximal inhibitory concentration (IC50) in assay [3] and in assay [4] were over 100000 nM and 2000 ± 310 nM, respectively. Further, in assay [5], the “activation of caspase 3/7” value is “strong activation”.

In turn, `CCC12C(=O)C(CC)(C(c3ccccc3)=C1c1ccccc1)C1C(=O)N(CC(O)CNC(C)C)C(=O)C12` (stereo not drawn) [Compound 5] had an apoptotic cells in assay [1] of about 78%. Besides, the “level of IKZF1 and IKZF3” value in assay [2] is on record as “significant diminution”. Moreover, the IC50 is over 100000 nM in assay [3] and 1000 ± 50 nM in assay [4]. The “activation of caspase 3/7” value in assay [5] is on record as “strong activation”.

For `CN(C)CCN1C(=O)C2C(C1=O)C1(c3ccccc3)CC2(c2ccccc2)C(c2ccccc2)=C1c1ccccc1` (stereo not drawn) [Compound 6], the apoptotic cells in assay [1] is reported as about 99%. Further, the “level of IKZF1 and IKZF3” value in assay [2] is “significant diminution”. Besides, the IC50 in assay [3] is over 100000 nM; in assay [4], 1000 ± 300 nM. Moreover, the “activation of caspase 3/7” value in assay [5] is on record as “strong activation”.
